The values below come from patent US20210189327A1, “3D […] CONSTRUCTS AND METHODS OF MAKING THEREOF” (McMaster University, priority 2019, published 2021).

The experiment concerns MCF-7 cells. As to the kind of experiment: Effect of actin cytoskeleton impairment on spheroid formation and consolidation. The format is cell-based. As to conditions: 100 nM; 1 hr pretreatment without (T-nT) or with (T-T) the same concentration during spheroid formation; 5×10^5 MCF-7 cells in large wells; P-value>0.05. Here is the method: Rapid Formation of Spheroidal Tissue Constructs. In order to form spheroidal tissue constructs, PDMS molds in the form of circular wells with spherical bottom were used. These molds were prepared by mixing PDMS and its curing agent with the ratio of 10:1 and casting it on the Poly lactic acid (PLA) master mold with negative of the required patterns. Master molds were designed using software Solidworks© and 3D printed using a Stereolithography (SLA) based 3D printer (Objet 24 Desktop 3D printer). A large and small well size were created with diameters of 4 and 2.5 mm respectively. MCF-7 (Michigan Cancer Foundation-7, a breast cancer cell line) cells were cultured in Dulbecco's Modified Eagle Medium (DMEM) (Thermofisher, high glucose) supplemented with 10% V/V fetal bovine serum (FBS) (Thermofisher, US origin) and 1% Penicillin-Streptomycin (Thermofisher, 10000 U/mL) until 70% confluent. Cells were trypsinized and detached from tissue culture flasks. Required number of cells (10^5 or 10^6) were aliquoted, precipitated using centrifugation, and resuspended in proper amount of medium (5 μL for small wells, 15 μL for large wells). The cell solution then was added to the equal amount of bovine collagen type I (Thermofisher, 5 mg/mL) and mixed to get a uniform distribution of cells. […]

Regarding `C/C1=C/C(=O)O[C@@H]2C[C@@H](CC[C@H](C)/C=C\C=C\CC1)O[C@@](O)([C@@H]1CSC(=O)N1)C2` [latrunculin A, Latrunculin A], the “difference between spheroid radii after 6 hrs versus untreated control (nT-nT)” value is listed as “no meaningful difference”.
